Structures can show the parent of a compound that is named as a salt. Where two headings read alike, the source gives them in different places.
Legend:
[1] = biological target: T1, ALDH1A1 (Homo sapiens, UniProt P00352); experiment: Cell-based enzyme assay, retinoic acid production in ALDH1A1/H1299 cells
T1 sequence (P00352 1-501): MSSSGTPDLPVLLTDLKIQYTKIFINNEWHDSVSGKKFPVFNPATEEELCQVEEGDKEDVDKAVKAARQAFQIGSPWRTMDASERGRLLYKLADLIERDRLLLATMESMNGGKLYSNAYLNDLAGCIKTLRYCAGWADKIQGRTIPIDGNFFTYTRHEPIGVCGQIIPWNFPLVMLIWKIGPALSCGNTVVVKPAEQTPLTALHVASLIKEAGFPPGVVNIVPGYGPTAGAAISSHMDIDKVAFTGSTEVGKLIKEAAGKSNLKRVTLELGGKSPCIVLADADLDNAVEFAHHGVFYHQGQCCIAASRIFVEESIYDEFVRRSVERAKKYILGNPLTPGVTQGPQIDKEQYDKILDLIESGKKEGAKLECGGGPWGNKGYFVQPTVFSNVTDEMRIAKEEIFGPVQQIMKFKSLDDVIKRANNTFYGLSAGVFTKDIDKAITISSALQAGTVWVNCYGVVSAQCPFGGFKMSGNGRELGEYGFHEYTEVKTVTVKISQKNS
Summary of the method: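 ALDH1A1- or ALDH1A2-stably transfected H1299 cells grown to confluence, then treated 20 h in serum-free RPMI-1640 with 2 μM all-trans-retinal plus varying inhibitor concentrations at 37 °C. Retinoic acid in cells and media quantified; inhibition from RA levels with vs without inhibitor.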

[2] = biological target: T2, ALDH2 (Homo sapiens, UniProt P05091); experiment: Purified ALDH2 assay with propanal, NADH fluorescence; assay type: biochemical; conditions: purified enzyme
T2 construct: histidine-tag (N); made in house; host or cells: bacterial expression (pETite vector, IPTG induction)
T2 sequence (P05091 18-517): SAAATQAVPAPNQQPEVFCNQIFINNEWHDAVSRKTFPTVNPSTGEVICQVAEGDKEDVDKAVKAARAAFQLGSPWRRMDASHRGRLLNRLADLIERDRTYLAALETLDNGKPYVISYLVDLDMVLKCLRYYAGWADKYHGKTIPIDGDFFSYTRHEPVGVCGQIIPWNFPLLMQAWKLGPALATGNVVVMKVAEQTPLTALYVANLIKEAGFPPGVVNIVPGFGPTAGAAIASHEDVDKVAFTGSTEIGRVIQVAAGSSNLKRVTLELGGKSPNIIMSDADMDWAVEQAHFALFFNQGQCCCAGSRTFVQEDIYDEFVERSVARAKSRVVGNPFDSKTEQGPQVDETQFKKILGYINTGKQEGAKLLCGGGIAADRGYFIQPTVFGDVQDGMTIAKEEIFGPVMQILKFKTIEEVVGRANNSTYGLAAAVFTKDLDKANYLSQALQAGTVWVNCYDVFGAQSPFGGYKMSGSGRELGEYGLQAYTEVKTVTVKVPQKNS
Summary of the method: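 His-tagged human ALDH2 expressed in bacteria and purified. 2 μg enzyme incubated with 20 μM propanal and varying inhibitor concentrations at room temperature. Activity read as NADH fluorescence (Ex 350/Em 460 nm), with initial velocity from two consecutive readings over 1 minute.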

3-(4-Acryloylphenyl)-1-phenyl-1H-pyrazole-4-carbaldehyde [Compound 309]
EC50 ([1]; cell-based): 0.73 µM
IC50 [2]: > 0.16 µM

3-{4-[(Chloroacetyl)amino]phenyl}-N-(3-fluorophenyl)-1-phenyl-1H-pyrazole-4-carboxamide [Compound 294]
EC50 ([1]; cell-based): < 0.005 µM
IC50 [2]: 24.4 µM

O=Cc1cn(-c2ccccc2)nc1-c1ccc(O)cc1 [Cmpd 34]
EC50 ([1]; cell-based): 0.469 µM
IC50 [2]: 18.2 µM

CS(=O)(=O)c1ccc(-c2nn(-c3ccccc3)cc2C(=O)Nc2cccc(F)c2)cc1 [Compound 178, 3-(4-(Methylsulfonyl)phenyl)-N-(3-fluorophenyl)-1-phenyl-1H-pyrazole-4-carboxamide]
EC50 ([1]; cell-based): 5.5 µM
IC50 [2]: 20.9 µM

CS(=O)(=O)c1ccc(-c2nn(-c3ccccc3)cc2C(=O)Nc2cccc(O)c2)cc1 [Compound 211, 3-(4-(Methylsulfonyl)phenyl)-N-(3-hydroxyphenyl)-1-phenyl-1H-pyrazole-4-carboxamide]
EC50 ([1]; cell-based): 2 µM
IC50 [2]: 15.5 µM

CS(=O)(=O)c1ccc(-c2nn(-c3ccccc3)cc2C(=O)Nc2cccc(Cl)c2)cc1 [Compound 219, 3-(4-(Methylsulfonyl)phenyl)-N-(3-chlorophenyl)-1-phenyl-1H-pyrazole-4-carboxamide]
EC50 ([1]; cell-based): > 20 µM
IC50 [2]: > 25 µM

CCS(=O)(=O)c1ccc(-c2nn(-c3ccccc3)cc2C(=O)Nc2cccc(F)c2)cc1 [Compound 223, 3-(4-(Ethylsulfonyl)phenyl)-N-(3-fluorophenyl)-1-phenyl-1H-pyrazole-4-carboxamide]
EC50 ([1]; cell-based): 1.3 µM
IC50 [2]: 133 µM

CS(=O)(=O)c1ccc(-c2nn(-c3ccccc3)cc2C(=O)Nc2cccc(F)c2O)cc1 [Compound 231, N-(3-Fluoro-2-hydroxyphenyl)-3-[4-(methylsulfonyl)phenyl]-1-phenyl-1H-pyrazole-4-carboxamide]
EC50 ([1]; cell-based): > 20 µM
IC50 [2]: 67.3 µM

CS(=O)(=O)c1ccc(-c2nn(-c3ccc(Cl)cc3)cc2C(=O)Nc2ccccc2O)cc1 [Compound 233, N-(2-Hydroxyphenyl)-3-[4-(methylsulfonyl)phenyl]-1-(4-chloropheny)-1H-pyrazole-4-carboxamide]
EC50 ([1]; cell-based): 13.2 µM
IC50 [2]: 87.2 µM

CS(=O)(=O)c1ccc(-c2nn(-c3ccc(F)cc3)cc2C(=O)Nc2cccc(F)c2)cc1 [Compound 241, N-(3-Fluorophenyl)-3-[4-(methylsulfonyl)phenyl]-1-(4-fluorophenyl)-1H-pyrazole-4-carboxamide]
EC50 ([1]; cell-based): 10.9 µM
IC50 [2]: 16.6 µM

CS(=O)(=O)c1ccc(-c2nn(-c3ccc(OC(F)(F)F)cc3)cc2C(=O)Nc2cccc(F)c2)cc1 [Compound 258, N-(3-Fluorophenyl)-1-(4-trifluoromethoxypheny)-3-[4-(methylsulfonyl)phenyl]-1H-pyrazole-4-carboxamide]
EC50 ([1]; cell-based): 26.4 µM
IC50 [2]: 100 µM

CS(=O)(=O)c1ccc(-c2nn(-c3ccc(C#N)cc3)cc2C(=O)Nc2cccc(C(F)(F)F)c2)cc1 [Compound 262, 1-(4-Cyanophenyl)-N-(3-trifluoromethylphenyl)-3-[4-(methylsulfonyl)phenyl]-1H-pyrazole-4-carboxamide]
EC50 ([1]; cell-based): > 20 µM
IC50 [2]: 16.7 µM

CS(=O)(=O)c1ccc(-c2nn(-c3cccc(F)c3)cc2C(=O)Nc2cccc(C(F)(F)F)c2)cc1 [Compound 266, 1-(3-Fluorophenyl)-N-(3-trifluoromethylphenyl)-3-[4-(methylsulfonyl)phenyl]-1H-pyrazole-4-carboxamide]
EC50 ([1]; cell-based): > 20 µM
IC50 [2]: 100 µM

CS(=O)(=O)c1ccc(-c2nn(-c3cccc(C#N)c3)cc2C(=O)Nc2cccc(F)c2)cc1 [Compound 268, 1-(3-Cyanophenyl)-N-(3-fluorophenyl)-3-[4-(methylsulfonyl)phenyl]-1H-pyrazole-4-carboxamide]
EC50 ([1]; cell-based): 2.43 µM
IC50 [2]: 83.7 µM

CS(=O)(=O)c1ccc(-c2nn(-c3cccc(C#N)c3)cc2C(=O)Nc2ccc(F)c(F)c2)cc1 [Compound 269, 1-(3-Cyanophenyl)-N-(3,4-difluorophenyl)-3-[4-(methylsulfonyl)phenyl]-1H-pyrazole-4-carboxamide]
EC50 ([1]; cell-based): 3.56 µM
IC50 [2]: 67.7 µM

N#Cc1ccc(-n2cc(C(=O)Nc3cccc(F)c3)c(-c3ccc(NC(=O)C(Cl)Cl)cc3)n2)cc1 [Compound 316a, 3-(4-Dichloroacetamidophenyll)-N-(3-fluorophenyl)-1-(4-cyanophenyl)-1H-pyrazole-4-carboxamide]
EC50 ([1]; cell-based): 0.18 µM
IC50 [2]: 4 µM

CCc1ccc(C(=O)N2CCN(c3ccc([N+](=O)[O-])c(N4CCCC4)c3)CC2)s1 [Compound 323, {4-[4-Nitro-3-(pyrrolidin-1-yl)phenyl]piperazin-1-yl}(5-ethylthiophen-2-yl)methanone]
EC50 [1]: 0.195 µM
IC50 [2]: 52 µM

CCOc1ccsc1C(=O)N1CCN(c2ccc([N+](=O)[O-])c(N3CCCC3)c2)CC1 [Compound 326, {4-[4-Nitro-3-(pyrrolidin-1-yl)phenyl]piperazin-1-yl}(3-ethoxythiophen-2-yl)methanone]
EC50 [1]: 0.44 µM
IC50 [2]: 97.3 µM

Cc1cc(C(=O)N2CCN(c3ccc([N+](=O)[O-])c(N4CCCC4)c3)CC2)sc1C [Compound 327, {4-[4-Nitro-3-(pyrrolidin-1-yl)phenyl]piperazin-1-yl}(4,5-dimethylthiophen-2-yl)methanone]
EC50 [1]: > 0.5 µM
IC50 [2]: 79.8 µM

COc1ccsc1C(=O)N1CCN(c2ccc([N+](=O)[O-])c(N3CCCC3)c2)CC1 [Compound 329, {4-[4-Nitro-3-(pyrrolidin-1-yl)phenyl]piperazin-1-yl}(3-methoxythiophen-2-yl)methanone]
EC50 [1]: < 0.5 µM
IC50 [2]: 86.4 µM

Nc1ccsc1C(=O)N1CCN(c2ccc([N+](=O)[O-])c(N3CCCC3)c2)CC1 [Compound 331, {4-[4-Nitro-3-(pyrrolidin-1-yl)phenyl]piperazin-1-yl}(3-aminothiophen-2-yl)methanone hydrochloride]
EC50 [1]: 0.088 µM
IC50 [2]: 24.9 µM

CC(=O)Nc1ccsc1C(=O)N1CCN(c2ccc([N+](=O)[O-])c(N3CCCC3)c2)CC1 [Compound 332]
EC50 [1]: 0.413 µM
IC50 [2]: 58.3 µM

O=C(c1ccc(F)s1)N1CCN(c2ccc([N+](=O)[O-])c(N3CCCC3)c2)CC1 [Compound 334, {4-[4-Nitro-3-(pyrrolidin-1-yl)phenyl]piperazin-1-yl}(5-fluorothiophen-2-yl)methanone]
EC50 [1]: 0.26 µM
IC50 [2]: > 100 µM

O=C(c1ccccc1)N1CCN(c2ccc([N+](=O)[O-])c(N3CCCC3)c2)CC1 [Compound 339, Phenyl-1-{4-[4-nitro-3-(pyrrolidin-1-yl)phenyl]piperazin-1-yl}methanone]
EC50 [1]: 0.333 µM
IC50 [2]: 48.1 µM

O=C(c1cccc(Cl)c1)N1CCN(c2ccc([N+](=O)[O-])c(N3CCCC3)c2)CC1 [Compound 341, 3-Chlorophenyl-1-{4-[4-nitro-3-(pyrrolidin-1-yl)phenyl]piperazin-1-yl}methanone]
EC50 [1]: < 0.5 µM
IC50 [2]: > 100 µM

O=C(c1ccc(Cl)cc1)N1CCN(c2ccc([N+](=O)[O-])c(N3CCCC3)c2)CC1 [Compound 342, 4-Chlorophenyl-1-{4-[4-nitro-3-(pyrrolidin-1-yl)phenyl]piperazin-1-yl}methanone]
EC50 [1]: 0.468 µM
IC50 [2]: > 100 µM

Source: patent publication US11548875B2, “Inhibitor compounds for male contraception” (University of Washington, priority 2018, dated 2023)
